Organism: Rattus norvegicus
Experiment: Open TG-GATES - Regimen: Single
Type: toxicity, organism-based, Sprague-Dawley
Set-up: regimen Single, gender Male, age 6 weeks
Details: in vivo, po, route gavage; for TG / TP / gamma-GTP / ALP / ALT / AST / BUN / CRE / Ca / DBIL / IP / K / LDH / Na / PL / RALB / TBIL / TC: tissue Plasma; for Bas / Eos / Fbg / Hb / Ht / Lym / MCHC / Mono / Neu / PT / Plat / RBC / Ret / WBC / MCH: tissue Blood; for KIDNEY_L / KIDNEY_R / KIDNEY_TOTAL: tissue Kidney; for LIVER: tissue Liver
[1] = 0 mg/kg, 24 h, dose level Control

CCC(C)(C)C(=O)O[C@H]1C[C@@H](C)C=C2C=C[C@H](C)[C@H](CC[C@@H]3C[C@@H](O)CC(=O)O3)[C@H]21 [SIMVASTATIN]
TG [1]: 76.6 mg/dL
TP [1]: 5.5 g/dL
gamma-GTP [1]: 1.6 IU/L
TERMINAL_BW (40 mg/kg, 3 h, dose level Low): 203.4 g
Bas (40 mg/kg, 3 h, dose level Low): 0%
Eos (40 mg/kg, 3 h, dose level Low): 0.6%
Fbg (40 mg/kg, 3 h, dose level Low): 213.2 mg/dL
Hb (40 mg/kg, 3 h, dose level Low): 12.4 g/dL
Ht (40 mg/kg, 3 h, dose level Low): 37.8%
Lym (40 mg/kg, 3 h, dose level Low): 81.6%
MCHC (40 mg/kg, 3 h, dose level Low): 32.8%
Mono (40 mg/kg, 3 h, dose level Low): 6%
Neu (40 mg/kg, 3 h, dose level Low): 12%
PT (40 mg/kg, 3 h, dose level Low): 11 s
Plat (40 mg/kg, 3 h, dose level Low): 112.7 x10_4/uL
RBC (40 mg/kg, 3 h, dose level Low): 568 x10_4/ul
Ret (40 mg/kg, 3 h, dose level Low): 10%
WBC (40 mg/kg, 3 h, dose level Low): 120.8 x10_2/uL
KIDNEY_L (40 mg/kg, 3 h, dose level Low): 0.9 g
KIDNEY_R (40 mg/kg, 3 h, dose level Low): 0.9 g
KIDNEY_TOTAL (40 mg/kg, 3 h, dose level Low): 1.9 g
LIVER (40 mg/kg, 3 h, dose level Low): 9.7 g
ALP (40 mg/kg, 3 h, dose level Low): 793.6 IU/L
ALT (40 mg/kg, 3 h, dose level Low): 31.4 IU/L
AST (40 mg/kg, 3 h, dose level Low): 61.6 IU/L
BUN (40 mg/kg, 3 h, dose level Low): 13.6 mg/dL
CRE (40 mg/kg, 3 h, dose level Low): 0.6 mg/dL
Ca (40 mg/kg, 3 h, dose level Low): 10.8 mg/dL
DBIL (40 mg/kg, 3 h, dose level Low): 0.04 mg/dL
IP (40 mg/kg, 3 h, dose level Low): 8.9 mg/dL
K (40 mg/kg, 3 h, dose level Low): 4.4 meq/L
LDH (40 mg/kg, 3 h, dose level Low): 91.8 IU/L
Na (40 mg/kg, 3 h, dose level Low): 137.8 meq/L
PL (40 mg/kg, 3 h, dose level Low): 144.6 mg/dL
RALB (40 mg/kg, 3 h, dose level Low): 3.8 g/dL
TBIL (40 mg/kg, 3 h, dose level Low): 0.3 mg/dL
TC (40 mg/kg, 3 h, dose level Low): 77.4 mg/dL
TG (40 mg/kg, 3 h, dose level Low): 71.2 mg/dL
TP (40 mg/kg, 3 h, dose level Low): 5.6 g/dL
gamma-GTP (40 mg/kg, 3 h, dose level Low): 1.4 IU/L
TERMINAL_BW (40 mg/kg, 6 h, dose level Low): 196.1 g
Bas (40 mg/kg, 6 h, dose level Low): 0%
Eos (40 mg/kg, 6 h, dose level Low): 1%
Fbg (40 mg/kg, 6 h, dose level Low): 216.2 mg/dL
Hb (40 mg/kg, 6 h, dose level Low): 13.4 g/dL
Ht (40 mg/kg, 6 h, dose level Low): 41.2%
Lym (40 mg/kg, 6 h, dose level Low): 81.6%
MCH (40 mg/kg, 6 h, dose level Low): 21.8 pg
MCHC (40 mg/kg, 6 h, dose level Low): 32.6%
Mono (40 mg/kg, 6 h, dose level Low): 7.4%
Neu (40 mg/kg, 6 h, dose level Low): 10.2%
Plat (40 mg/kg, 6 h, dose level Low): 112.9 x10_4/uL
RBC (40 mg/kg, 6 h, dose level Low): 615.8 x10_4/ul
Ret (40 mg/kg, 6 h, dose level Low): 9.1%
WBC (40 mg/kg, 6 h, dose level Low): 93.2 x10_2/uL
KIDNEY_L (40 mg/kg, 6 h, dose level Low): 0.9 g
KIDNEY_R (40 mg/kg, 6 h, dose level Low): 0.9 g
KIDNEY_TOTAL (40 mg/kg, 6 h, dose level Low): 1.8 g
LIVER (40 mg/kg, 6 h, dose level Low): 8.7 g
ALP (40 mg/kg, 6 h, dose level Low): 826.8 IU/L
ALT (40 mg/kg, 6 h, dose level Low): 32.8 IU/L
AST (40 mg/kg, 6 h, dose level Low): 58.6 IU/L
CRE (40 mg/kg, 6 h, dose level Low): 0.5 mg/dL
Ca (40 mg/kg, 6 h, dose level Low): 10.2 mg/dL
DBIL (40 mg/kg, 6 h, dose level Low): 0.08 mg/dL
IP (40 mg/kg, 6 h, dose level Low): 9.6 mg/dL
K (40 mg/kg, 6 h, dose level Low): 4.4 meq/L
LDH (40 mg/kg, 6 h, dose level Low): 98.4 IU/L
Na (40 mg/kg, 6 h, dose level Low): 137.6 meq/L
PL (40 mg/kg, 6 h, dose level Low): 132.4 mg/dL
RALB (40 mg/kg, 6 h, dose level Low): 3.6 g/dL
TBIL (40 mg/kg, 6 h, dose level Low): 0.4 mg/dL
TC (40 mg/kg, 6 h, dose level Low): 75.8 mg/dL
TG (40 mg/kg, 6 h, dose level Low): 50.8 mg/dL
TP (40 mg/kg, 6 h, dose level Low): 5.6 g/dL
gamma-GTP (40 mg/kg, 6 h, dose level Low): 1.2 IU/L
TERMINAL_BW (40 mg/kg, 9 h, dose level Low): 200.4 g
Bas (40 mg/kg, 9 h, dose level Low): 0%
Eos (40 mg/kg, 9 h, dose level Low): 0.8%
Fbg (40 mg/kg, 9 h, dose level Low): 214.8 mg/dL
Hb (40 mg/kg, 9 h, dose level Low): 13.2 g/dL
Ht (40 mg/kg, 9 h, dose level Low): 40.1%
Lym (40 mg/kg, 9 h, dose level Low): 78.6%
MCH (40 mg/kg, 9 h, dose level Low): 22 pg
MCHC (40 mg/kg, 9 h, dose level Low): 32.9%
Mono (40 mg/kg, 9 h, dose level Low): 7.8%
Neu (40 mg/kg, 9 h, dose level Low): 12.8%
PT (40 mg/kg, 9 h, dose level Low): 11.7 s
Plat (40 mg/kg, 9 h, dose level Low): 110 x10_4/uL
RBC (40 mg/kg, 9 h, dose level Low): 601.2 x10_4/ul
Ret (40 mg/kg, 9 h, dose level Low): 9.1%
WBC (40 mg/kg, 9 h, dose level Low): 101.8 x10_2/uL
KIDNEY_L (40 mg/kg, 9 h, dose level Low): 0.9 g
KIDNEY_R (40 mg/kg, 9 h, dose level Low): 0.9 g
KIDNEY_TOTAL (40 mg/kg, 9 h, dose level Low): 1.8 g
LIVER (40 mg/kg, 9 h, dose level Low): 8.2 g
ALP (40 mg/kg, 9 h, dose level Low): 749.6 IU/L
ALT (40 mg/kg, 9 h, dose level Low): 32.8 IU/L
AST (40 mg/kg, 9 h, dose level Low): 58.4 IU/L
BUN (40 mg/kg, 9 h, dose level Low): 12.6 mg/dL
CRE (40 mg/kg, 9 h, dose level Low): 0.7 mg/dL
DBIL (40 mg/kg, 9 h, dose level Low): 0.016 mg/dL
K (40 mg/kg, 9 h, dose level Low): 4.6 meq/L
LDH (40 mg/kg, 9 h, dose level Low): 91 IU/L
Na (40 mg/kg, 9 h, dose level Low): 138 meq/L
PL (40 mg/kg, 9 h, dose level Low): 118.4 mg/dL
RALB (40 mg/kg, 9 h, dose level Low): 3.7 g/dL
TBIL (40 mg/kg, 9 h, dose level Low): 0.4 mg/dL
TC (40 mg/kg, 9 h, dose level Low): 64.8 mg/dL
TG (40 mg/kg, 9 h, dose level Low): 42 mg/dL
TP (40 mg/kg, 9 h, dose level Low): 5.4 g/dL
gamma-GTP (40 mg/kg, 9 h, dose level Low): 2 IU/L
TERMINAL_BW (40 mg/kg, 24 h, dose level Low): 216.2 g
Bas (40 mg/kg, 24 h, dose level Low): 0%
Eos (40 mg/kg, 24 h, dose level Low): 1%
Fbg (40 mg/kg, 24 h, dose level Low): 221.2 mg/dL
Hb (40 mg/kg, 24 h, dose level Low): 12.5 g/dL
Ht (40 mg/kg, 24 h, dose level Low): 38.2%
Lym (40 mg/kg, 24 h, dose level Low): 78.6%
MCHC (40 mg/kg, 24 h, dose level Low): 32.8%
Mono (40 mg/kg, 24 h, dose level Low): 9.8%
Neu (40 mg/kg, 24 h, dose level Low): 11%
Plat (40 mg/kg, 24 h, dose level Low): 119.9 x10_4/uL
RBC (40 mg/kg, 24 h, dose level Low): 588.4 x10_4/ul
WBC (40 mg/kg, 24 h, dose level Low): 118.8 x10_2/uL
KIDNEY_L (40 mg/kg, 24 h, dose level Low): 1 g
KIDNEY_R (40 mg/kg, 24 h, dose level Low): 1 g
KIDNEY_TOTAL (40 mg/kg, 24 h, dose level Low): 2 g
LIVER (40 mg/kg, 24 h, dose level Low): 10.8 g
ALP (40 mg/kg, 24 h, dose level Low): 866.2 IU/L
ALT (40 mg/kg, 24 h, dose level Low): 41.6 IU/L
AST (40 mg/kg, 24 h, dose level Low): 63.6 IU/L
BUN (40 mg/kg, 24 h, dose level Low): 18.6 mg/dL
CRE (40 mg/kg, 24 h, dose level Low): 0.5 mg/dL
Ca (40 mg/kg, 24 h, dose level Low): 10.8 mg/dL
DBIL (40 mg/kg, 24 h, dose level Low): 0.022 mg/dL
IP (40 mg/kg, 24 h, dose level Low): 8.4 mg/dL
K (40 mg/kg, 24 h, dose level Low): 4.6 meq/L
LDH (40 mg/kg, 24 h, dose level Low): 108.4 IU/L
Na (40 mg/kg, 24 h, dose level Low): 140.2 meq/L
PL (40 mg/kg, 24 h, dose level Low): 144.6 mg/dL
RALB (40 mg/kg, 24 h, dose level Low): 3.7 g/dL
TBIL (40 mg/kg, 24 h, dose level Low): 0.3 mg/dL

Source: ChEMBL document CHEMBL3885861, “Open TG-GATES”
